Values quoted from earlier work as cited in paper PMC11419783 (Blood, 2024).

Tests used:
[1] = tested on: KMT2A-r cell lines engineered to express mutant menin (M327I or T349M); details: M327I or T349M in endogenous MEN1-coding sequence
[2] = tested on: KMT2A and NPM1 altered R/R acute leukemia; details: recommended phase 2 dose, NPM1-altered disease
[3] = tested on: Recombinant mutant MEN1 (MEN1^M327I, MEN1^T349M)

Compound	sensitivity of menin-mutant cell lines to antiproliferative effects [1]	complete remission/complete remission with partial recovery of peripheral blood counts [2] [%]	binding affinity to mutant MEN1 [3]
CNc1nc(NC2CCN(Cc3ccc4c(cc(C#N)n4CC45CC(NC=O)(C4)C5)c3C)CC2)c2cc(CC(F)(F)F)sc2n1 [MI3454]	resistant		
CNc1nc(NC2CCN(Cc3ccc4c(cc(C#N)n4C[C@H](C)N4CCN(S(C)(=O)=O)CC4)c3C)CC2)c2cc(CC(F)(F)F)sc2n1 [ziftomenib]		35	
COc1cc(-c2ccc(CN[C@H]3C[C@@H](O)[C@@H](N(C)c4ncnc5sc(CC(F)(F)F)cc45)C3)cc2)nnc1OC [DS-1594]	resistant		
CCN(C(=O)c1cc(F)ccc1Oc1cncnc1N1CC2(CCN(C[C@H]3CC[C@H](NS(=O)(=O)CC)CC3)CC2)C1)C(C)C [revumenib]	resistant		significant reduction in binding affinity
